The values below come from patent US20230062100A1, “SUBSTITUTED AMINOQUINOLONES AS DGKALPHA INHIBITORS FOR IMMUNE ACTIVATION” (Bayer Aktiengesellschaft, priority 2019, published 2023).

SMILES strings stand for the structures.

DGKα, sequence (P23743 with tags, fused parts or gaps): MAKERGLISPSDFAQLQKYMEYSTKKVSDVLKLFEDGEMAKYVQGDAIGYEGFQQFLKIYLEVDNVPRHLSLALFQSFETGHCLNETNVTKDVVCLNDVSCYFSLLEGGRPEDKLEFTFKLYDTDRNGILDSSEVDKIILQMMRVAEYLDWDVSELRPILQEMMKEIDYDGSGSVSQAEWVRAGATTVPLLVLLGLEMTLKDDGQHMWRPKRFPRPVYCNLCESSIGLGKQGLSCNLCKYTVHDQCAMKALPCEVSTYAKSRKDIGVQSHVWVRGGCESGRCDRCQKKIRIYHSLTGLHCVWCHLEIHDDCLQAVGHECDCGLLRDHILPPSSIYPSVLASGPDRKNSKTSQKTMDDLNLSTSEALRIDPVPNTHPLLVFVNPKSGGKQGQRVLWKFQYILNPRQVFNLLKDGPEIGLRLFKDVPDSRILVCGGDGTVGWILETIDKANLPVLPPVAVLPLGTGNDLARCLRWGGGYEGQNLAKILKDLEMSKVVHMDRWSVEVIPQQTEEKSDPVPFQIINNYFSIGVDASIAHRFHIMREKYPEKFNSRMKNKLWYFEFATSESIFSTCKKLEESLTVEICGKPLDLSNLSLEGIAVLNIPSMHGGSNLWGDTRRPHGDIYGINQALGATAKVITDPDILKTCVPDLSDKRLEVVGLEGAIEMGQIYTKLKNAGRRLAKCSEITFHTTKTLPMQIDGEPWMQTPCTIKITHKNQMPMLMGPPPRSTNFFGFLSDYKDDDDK

This test has as its target DGKα (Homo sapiens, UniProt P23743). As to the kind of experiment: Human DGKα kinase activity inhibition assay (ADP-Glo). Type of test: biochemical. The conditions noted are these: in vitro human DGKα kinase activity inhibition assay. The protocol:
Human DGKα inhibitory activity of compounds of the present invention was quantified employing the human DGKα kinase activity assay as described in the following paragraphs. In essence, the enzyme activity was measured by quantification of the adenosine-di-phosphate (ADP) generated as a co-product of the enzyme reaction via the “ADP-Glo™ Kinase Assay” kit from the company Promega. This detection system works as follows: In a first step the ATP not consumed in the kinase reaction is quantitatively converted to cAMP employing an adenylate cyclase (“ADP-Glo-reagent”), then the adenylate cyclase is stopped and the ADP generated in the kinase reaction converted to ATP, which subsequently generates in a luciferase-based reaction a glow-luminescence signal (“Kinase Detection Reagent”). C-terminally FLAG-tagged, recombinant full-length human DGKα (expressed in baculovirus infected insect cells, purified using anti-Flag pulldown and size exclusion chromatography as described below, DGKα_hu_1) was used as enzyme. As substrate for the kinase 1,2-dioleoyl-sn-glycerol, reconstituted in octyl-β-D-glucopyranoside micelles, was used. For the preparation of the micelles, 1 volume of a 16.1 mM solution of 1,2-dioleoyl-sn-glycerol (Avanti, Cat. #O8001-25G) in chloroform was slowly evaporated using a nitrogen stream. Subsequently, 22.55 volumes of a 510 mM solution of octyl-β-D-glucopyranoside (Sigma-Aldrich, Cat. #O8001-10G) in 50 mM MOPS buffer (pH 7.4) were added, and the mixture was sonicated in an ultrasonic bath for 20 s. Then 35 volumes of 50 mM MOPS buffer (pH 7.4) were added to yield a solution of 0.28 mM 1,2 dioleoyl-sn-glycerol and 200 mM octyl-β-D-glucopyranoside, which was aliquoted, flash-frozen in liquid nitrogen, and stored at −20° C. until use. For each experiment, a fresh aliquot was quickly thawed and diluted 24-fold with aqueous assay buffer (described below) containing 95.7 μM adenosine triphosphate (Promega) to yield a 1.67-fold concentrated substrate solution. For the assay 50 nl of a 100-fold concentrated solution of the test compound in dimethyl sulfoxide (DMSO, Sigma) was pipetted into either a white 1536-well or a white low-volume 384-well microtiter plate (both Greiner Bio-One, Frickenhausen, Germany). […] The concentration of DGK a was adjusted depending of the activity of the enzyme lot and was chosen appropriate to have the assay in the linear range, a typical concentration is about 0.1 nM. The reaction was stopped by the addition of 2.5 μl of “ADP-Glo-reagent” (1 to 1.5 diluted with water) and the resulting mixture was incubated at 22° C. for 1 h to convert the ATP not consumed in the kinase reaction completely to cAMP. […] The amount of emitted light was taken as a measure for the amount of ADP generated and thereby for the activity of the DGKα.
(In general: In ADP-Glo the light output rises with the ADP produced.)
In the case of `CC(OC1CCN(c2c(C#N)c(=O)n(C)c3ccccc23)CC1)c1ccccc1` (racemic) [Example 112, (rac)-1-methyl-2-oxo-4-[4-(1-phenylethoxy)piperidin-1-yl]-1,2-dihydroquinoline-3-carbonitrile], the IC50 (commonly the point on the concentration scale where inhibition reaches its midpoint) was 10 nM.

Compound `Cn1c(=O)c(C#N)c(N2CCC(Oc3ccc(C(F)(F)F)cc3)CC2)c2ccc(Br)cc21` [Example 59, 7-bromo-1-methyl-2-oxo-4-{4-[4-(trifluoromethyl)phenoxy]piperidin-1-yl}-1,2-dihydroquinoline-3-carbonitrile] returned an IC50 of 18 nM.

`Cn1c(=O)c(C#N)c(N2CCC(COc3ccccc3)CC2)c2ccccc21` [Example 118, 1-methyl-2-oxo-4-[4-(phenoxymethyl)piperidin-1-yl]-1,2-dihydroquinoline-3-carbonitrile] gave an IC50 of 123 nM.

`COCCc1ccc2c(N3CCC(Oc4cccc(Cl)c4)CC3)c(C#N)c(=O)n(C)c2c1` [Example 74, 4-[4-(3-chlorophenoxy)piperidin-1-yl]-7-(2-methoxyethyl)-1-methyl-2-oxo-1,2-dihydroquinoline-3-carbonitrile] yielded an IC50 of 3.5 nM.

In turn, `Cc1ccc2c(c1)c(N1CCC(Oc3ccccc3C)CC1)c(C#N)c(=O)n2C` [Example 150, 1,6-dimethyl-4-[4-(2-methylphenoxy)piperidin-1-yl]-2-oxo-1,2-dihydroquinoline-3-carbonitrile] came in with an IC50 of 50 nM.

`CN1CCN(c2ccc3c(N4CCC(Oc5cccc(Cl)c5)CC4)c(C#N)c(=O)n(C)c3c2)CC1` [Example 80, 4-[4-(3-chlorophenoxy)piperidin-1-yl]-1-methyl-7-(4-methylpiperazin-1-yl)-2-oxo-1,2-dihydroquinoline-3-carbonitrile]: the IC50 worked out at 534 nM.

`COCCc1ccc2c(N3CCC(Oc4cccc(OC(F)(F)F)c4)CC3)c(C#N)c(=O)n(C)c2c1` [Example 76, 7-(2-methoxyethyl)-1-methyl-2-oxo-4-{4-[3-(trifluoromethoxy)phenoxy]piperidin-1-yl}-1,2-dihydroquinoline-3-carbonitrile] gave an IC50 of 6.8 nM.

`COc1cc(C)ccc1OC1CCN(c2c(C(N)=O)c(=O)n(C)c3ccc(C)cc23)CC1` [Example 161, 4-[4-(2-methoxy-4-methylphenoxy)piperidin-1-yl]-1,6-dimethyl-2-oxo-1,2-dihydroquinoline-3-carboxamide] had an IC50 of 21 nM.

`Cn1c(=O)c(C#N)c(N2CCC(OCc3cccc(F)c3)CC2)c2ccccc21` [Example 113, 4-{4-[(3-fluorophenyl)methoxy]piperidin-1-yl}-1-methyl-2-oxo-1,2-dihydroquinoline-3-carbonitrile] had an IC50 of 12 nM.

`CN(C)C(=O)c1ccc(OC2CCN(c3c(C#N)c(=O)n(C)c4ccccc34)CC2)cc1` [Example 26, 4-{[1-(3-cyano-1-methyl-2-oxo-1,2-dihydroquinolin-4-yl)piperidin-4-yl]oxy}-N,N-dimethylbenzamide] showed an IC50 of 415 nM.

`CN1CCCN(c2ccc(OC3CCN(c4c(C#N)c(=O)n(C)c5ccccc45)CC3)cc2)C1=O` [Example 21, 1-methyl-4-{4-[4-(3-methyl-2-oxo-1,3-diazinan-1-yl)phenoxy]piperidin-1-yl}-2-oxo-1,2-dihydroquinoline-3-carbonitrile] came in with a half-inhibitory concentration (IC50) of 119 nM.

`Cn1c(=O)c(C#N)c(N2CCC(Oc3ccccc3)CC2)c2ccccc21` [Example 5, 1-methyl-2-oxo-4-(4-phenoxypiperidin-1-yl)-1,2-dihydroquinoline-3-carbonitrile] registered an IC50 of 7.7 nM.

Compound `Cn1c(=O)c(C#N)c(N2CCC(Oc3cccc4ocnc34)CC2)c2ccccc21` [Example 27, 4-{4-[(1,3-benzoxazol-4-yl)oxy]piperidin-1-yl}-1-methyl-2-oxo-1,2-dihydroquinoline-3-carbonitrile] displayed an IC50 of 318 nM.

`COc1ccc(COC2CCN(c3c(C#N)c(=O)n(C)c4ccccc34)CC2)cc1` [Example 109, 4-{4-[(4-methoxyphenyl)methoxy]piperidin-1-yl}-1-methyl-2-oxo-1,2-dihydroquinoline-3-carbonitrile] yielded an IC50 of 16 nM.

For `Cn1c(=O)c(C#N)c(N2CCC(Oc3ccc(OC(F)(F)F)cc3)CC2)c2cccc(P(C)(C)=O)c21` [Example 135, 8-(dimethylphosphoryl)-1-methyl-2-oxo-4-{4-[4-(trifluoromethoxy)phenoxy]piperidin-1-yl}-1,2-dihydroquinoline-3-carbonitrile], the midpoint of inhibition, the IC50, lay at 1370 nM.

With `Cc1cc(Br)c2c(c1)c(N1CCC(Oc3ccc(OC(F)(F)F)cc3)CC1)c(C#N)c(=O)n2C` [Example 168, 8-bromo-1,6-dimethyl-2-oxo-4-{4-[4-(trifluoromethoxy)phenoxy]piperidin-1-yl}-1,2-dihydroquinoline-3-carbonitrile], the IC50 was found to be 556 nM.

For `COc1ccccc1OC1CCN(c2c(C#N)c(=O)n(C)c3ccc(C)cc23)CC1` [Example 154, 4-[4-(2-methoxyphenoxy)piperidin-1-yl]-1,6-dimethyl-2-oxo-1,2-dihydroquinoline-3-carbonitrile], 13 nM corresponded to half-maximal inhibition (IC50).

Compound `Cn1c(=O)c(C#N)c(N2CCC(Oc3ccc(OC(F)(F)F)cc3)CC2)c2cccc(C#N)c21` [Example 132, 1-methyl-2-oxo-4-{4-[4-(trifluoromethoxy)phenoxy]piperidin-1-yl}-1,2-dihydroquinoline-3,8-dicarbonitrile] gave an IC50 of 536 nM.

For the compound `Cn1c(=O)c(C(N)=O)c(N2CCC(OCc3ccccc3F)CC2)c2ccccc21` [Example 126, 4-{4-[(2-fluorophenyl)methoxy]piperidin-1-yl}-1-methyl-2-oxo-1,2-dihydroquinoline-3-carboxamide], it took 14 nM to reach half-maximal inhibition (IC50).

Consider `CN1CCN(c2ccc(OC3CCN(c4c(C#N)c(=O)n(C)c5ccccc45)CC3)cc2)C(=O)C1` [Example 24, 1-methyl-4-{4-[4-(4-methyl-2-oxopiperazin-1-yl)phenoxy]piperidin-1-yl}-2-oxo-1,2-dihydroquinoline-3-carbonitrile], for which inhibition was half-maximal at 266 nM (IC50).

`Cn1c(=O)c(C#N)c(N2CCC(Oc3ccccc3C#N)CC2)c2ccccc21` [Example 34, 4-[4-(2-cyanophenoxy)piperidin-1-yl]-1-methyl-2-oxo-1,2-dihydroquinoline-3-carbonitrile] came in with an IC50 of 9 nM.

For the compound `Cn1c(=O)c(C(N)=O)c(N2CCC(Oc3ccc(OC(F)(F)F)cc3)CC2)c2cccc(Cl)c21` [Example 164, 8-chloro-1-methyl-2-oxo-4-{4-[4-(trifluoromethoxy)phenoxy]piperidin-1-yl}-1,2-dihydroquinoline-3-carboxamide], half-maximal inhibition (IC50) was put at 37 nM.

With `Cn1c(=O)c(C#N)c(N2CCC(Oc3ccc(N=S(C)(C)=O)cc3)CC2)c2ccccc21` [Example 30, 4-[4-(4-{[dimethyl(oxo)-λ^6-sulfanylidene]amino}phenoxy)piperidin-1-yl]-1-methyl-2-oxo-1,2-dihydroquinoline-3-carbonitrile], the IC50 was found to be 1530 nM.

Turning to `Cc1ccc(COC2CCN(c3c(C#N)c(=O)n(C)c4ccccc34)CC2)cc1` [Example 107, 1-methyl-4-{4-[(4-methylphenyl)methoxy]piperidin-1-yl}-2-oxo-1,2-dihydroquinoline-3-carbonitrile], the IC50 worked out at 7.2 nM.

`Cn1c(=O)c(C#N)c(N2CCC(COc3ccc(Cl)cc3)CC2)c2ccccc21` [Example 116, 4-{4-[(4-chlorophenoxy)methyl]piperidin-1-yl}-1-methyl-2-oxo-1,2-dihydroquinoline-3-carbonitrile] gave an IC50 of 6.4 nM.

Turning to `Cn1c(=O)c(C#N)c(N2CCC(Oc3ccc(S(C)(=O)=O)cc3)CC2)c2ccccc21` [Example 43, 4-{4-[4-(methanesulfonyl)phenoxy]piperidin-1-yl}-1-methyl-2-oxo-1,2-dihydroquinoline-3-carbonitrile], half-maximal inhibition (IC50) required 339 nM.

In turn, `Cn1c(=O)c(C#N)c(N2CCC(Oc3ccc(OC(F)(F)F)cc3)CC2)c2ccc(N3CCCC3=O)cc21` [Example 82, 1-methyl-2-oxo-7-(2-oxopyrrolidin-1-yl)-4-{4-[4-(trifluoromethoxy)phenoxy]piperidin-1-yl}-1,2-dihydroquinoline-3-carbonitrile] gave an IC50 of 12 nM.

`Cn1c(=O)c(C(N)=O)c(N2CCC(Oc3ccc(OC(F)(F)F)cc3)CC2)c2ccc(F)cc21` [Example 99, 7-fluoro-1-methyl-2-oxo-4-{4-[4-(trifluoromethoxy)phenoxy]piperidin-1-yl}-1,2-dihydroquinoline-3-carboxamide] registered an IC50 of 1.2 nM.
